From patent US7498340B2, “Esters in position 20 of camptothecins” (priority 2002, dated 2009)
Where a name gives a salt, the structure may show the parent alone.

What follows are compounds tested on NCI-H460. Details: read-out: Cytotoxicity test on H460 cells: IC50; H460 cells; printed as 42 nM±6.
With `CC[C@@]1(OC(=O)CCCBr)C(=O)OCc2c1cc1n(c2=O)Cc2c-1nc1ccccc1c2/C=N/OC(C)(C)C` [ST2599, (E)-7-tert-butoxyiminomethyl-20-O-(4-bromo)-butyryl-camptothecin] the IC50 was 42 nM.

Same assay, conditions: read-out: NCI-H460 IC50; 2 h exposure, then 72 h recovery; concentration inhibiting 50% of cell survival; ALLFIT software
Compound `CCC1(OC(=O)CCC(=O)NCCN(C)C)C(=O)OCc2c1cc1n(c2=O)Cc2c-1nc1ccccc1c2C=NOC(C)(C)C` (stereo not shown) [ST1657, (E)-7-tert-butoxyiminomethyl-20-O-[2-(dimethylamino)ethylamino]succinyl-camptothecin hydrochloride] has an IC50 of 12 nM. With “20-O-(terbutylglycyl)succinyl-camptothecin bromide [ST1453]” the IC50 was 260 nM. “20-O-(benzylglycyl)succinyl-camptothecin [ST1451]” showed an IC50 of 150 nM. “7-ter-butoxyiminomethyl-20-O-(2-methoxy-phenyl-glycyl)succinyl-camptothecin [ST1617]” showed an IC50 of 29 nM. In the case of “(E)-7-tert-butoxyiminomethyl-20-O-(4-trimethyl-ammonium-3-hydroxy)butanoyl-camptothecin bromide [ST2204]”, the IC50 is reported as 41 nM. “20-O-(2-methoxyphenylglycyl)succinyl-camptothecin [ST1454]” gave an IC50 of 160 nM. With `CC[C@@]1(OC(=O)CCC(=O)NCC(=O)OC(C)(C)C)C(=O)OCc2c1cc1n(c2=O)Cc2c-1nc1ccccc1c2C=NOC(C)(C)C` [ST1616, 7-ter-butoxyiminomethyl-20-O-(terbutylglycyl)succinyl-camptothecin] the IC50 was 4 nM. `CC[C@@]1(OC(=O)CCC(=O)NCC(=O)O)C(=O)OCc2c1cc1n(c2=O)Cc2cc3ccccc3nc2-1` [ST1452, 20-O-(glycyl)succinyl-camptothecin] gave an IC50 of 1600 nM. Work on `CCC1(OC(=O)CCC[N+](C)(C)C)C(=O)OCc2c1cc1n(c2=O)Cc2c-1nc1ccccc1c2C=NOC(C)(C)C` (stereo not shown) [ST2200, (E)-7-tert-butoxyiminomethyl-20-O-(4-trimethylammonium)-butanoyl-camptothecin bromide] yielded an IC50 of 17 nM.
